Where two headings read alike, the source gives them in different places.
Columns and labels:
[1] = test system: 55 pharmacologically relevant receptors; parameters: method as in Massa et al., 2010; conditions: standard screening concentration; ref Massa et al., 2010; cited from earlier work
[2] = Brain:plasma partitioning (LC-MS/MS); assay type: in vivo, mouse; conditions: mice; for concentration at 1 h / concentration at 3 h / Kp at 1 h / Kp at 3 h / plasma levels: 50 mg/kg i.p.; for Kp at 1 h / Kp at 3 h: brain/plasma, read-out: brain-to-plasma ratio; for concentration at 1 h / Kp at 1 h / plasma levels: 1 h; for plasma levels: in nM (unit assumed)
Experimental: Brain and plasma concentrations of LM22A-4, PTX-BD4-3 and atenolol were determined by LC-MS/MS by Absorption Systems (Exton, PA, USA). Male C57BL/6 were dosed intraperitoneally one time with LM22A-4 or PTX-BD4-3 suspended in water at 50 mg/kg (10 ml/kg). Mice were sacrificed at 1 h or 3 h post dose (n=3-4 mice/time point), and brain and plasma samples were collected.
Figure S1. Brain and plasma levels, and brain to plasma ratios for […]
PTX-BD4-3 following IP administration in Wt mice. Brain and plasma levels were determined by LC-MS/MS and used to calculate the brain:plasma ratios at 1 and 3 hours after IP administration of 50 mg/kg LM22A-4 (black), or PTX- […]
in mice (n=11-12 mice/time point; data shown are mean + s.e.m.)
*p<0.05 compared to LM22A-4 at same time point; one-tailed Student’s t-test. […]

3T3-TrkB cells = assay: NIH-3T3 cell survival (ViaLight); assay type: cell-based, mouse; conditions: 72-96 h
Experimental: Fig. 2. PTX-BD4-3 promotes cell survival preferentially through TrkB. (A-D) Neurotrophin receptor-expressing NIH-3T3 cells were incubated in culture medium (CM) alone or in medium plus either the indicated neurotrophins (BDNF, NGF, NT-3) or PTX-BD4-3 or its parent compound LM22A-4 for 72-96 h, after which survival was measured using the ViaLight assay. […] Scale bar: 10 μm. (B) Survival dose-response curves for PTX-BD4-3 and LM22A-4 in 3T3-TrkB cells. ^§P≤0.001 compared to CM alone. (C) Representative images of 3T3-TrkA, 3T3-TrkC and 3T3-p75 cells grown in the presence of CM alone, CM+neurotrophin or CM+PTX-BD4-3. Scale bar: 10 μm. NGF, NT-3 and BDNF served as positive controls for 3T3-TrkA, 3T3-TrkC and 3T3-p75 cells, respectively. (D) PTX-BD4-3 (1000 nM) had no effect on survival of 3T3-TrkA, 3T3-TrkC or 3T3-p75 cells compared to medium alone. *P≤0.05, ***P≤0.001 compared to CM alone. For each determination in B and D, n=10-32 wells derived from four to five independent experiments. Statistical significance was determined by one-way ANOVA with Dunnett's post hoc multiple comparison test. (E,F) […] protein was extracted from human cementoblast-like cell (HCEM) cultures treated with either culture medium alone, BDNF, LM22A-4 or PTX-BD4-3, immunoprecipitated with anti-TrkB antibody and then probed sequentially on western blots with anti-Shc and anti-TrkB antibody. The ratio of Shc to TrkB in treated cultures was normalized and compared to control (CM alone) using Kruskal-Wallis ANOVA followed by Dunn's multiple comparisons test (*P≤0.05, ^§P≤0.001). n=13 independent experiments, and each protein sample was run on duplicate western blots and the normalized values averaged. RLUs, relative light units.
Mouse NIH-3T3 cells expressing TrkA (NIH-3T3-TrkA) were provided by Dr William Mobley (University of California at San Diego, San Diego, CA, USA), and NIH-3T3 cells expressing TrkB (NIH-3T3-TrkB) or TrkC (NIH-3T3-TrkC) were provided by Dr David Kaplan (University of Toronto, Toronto, ON, Canada). Cells were propagated in Dulbecco's modified Eagle medium (DMEM) supplemented with 10% fetal bovine serum (FBS; Invitrogen) and 200-400 µg/ml Geneticin. Cells were seeded into 24-well plates (30,000 cells/well) and cultured in medium consisting of 50% PBS and 50% DMEM without supplements. Following exposure to BDNF (20 ng/ml, 0.7 nM) or 10-1000 nM LM22A-4 or PTX-BD4-3 for 72-96 h, cells were suspended in 50 µl lysis buffer, transferred to white, opaque 96-well culture plates and survival was measured using the ViaLight Assay (Lonza Group, Rockland, ME, USA).

[3] = male, C57BL/6, mouse, brain, ip, read-out: brain levels
[4] = male, C57BL/6, mouse, plasma, ip, read-out: plasma level

**Q.** Which “binding within the panel of 55 receptors” value [1] does the source give for `O=C(NCCO)c1cc(C(=O)NCCO)cc(C(=O)NCCO)c1` [LM22A-4, N,N′,N′′-tris(2-hydroxyethyl)-1,3,5-benzenetricarboxamide, reference compound] here?
**A.** no significant binding

**Q.** And the concentration at 1 h [2, 3]?
**A.** 0.2 µM

**Q.** And the concentration at 3 h [2, 3]?
**A.** 0.0532 µM

**Q.** What about the Kp at 1 h ([2]; male, C57BL/6, mouse, ip) of the same compound?
**A.** 0.0268

**Q.** And the Kp at 3 h ([2]; male, C57BL/6, mouse, ip)?
**A.** 0.133

**Q.** And the concentration at 3 h [2, 4]?
**A.** 2350 µM

**Q.** And the plasma levels [2]?
**A.** 9193.46

**Q.** What about the “survival of 3T3-TrkB cells” value (3T3-TrkB cells; 1000 nM, representative images) of the same compound?
**A.** support the survival

**Q.** What does the source list for `COCCN(C)C(=O)c1cc(C(=O)N(C)CCOC)cc(C(=O)N(C)CCOC)c1` [PTX-BD4-3, benzene-1,3,5-tricarboxylic acid tris-[(2-methoxy-ethyl)-methyl-amide]]?
**A.** half-life ([2]; male, C57BL/6, mouse, brain and plasma, ip, 50 mg/kg, systemic (i.p.) administration): < 3 h; concentration at 1 h [2, 3]: 0.227 µM; concentration at 3 h [2, 3]: 0.0361 µM; Kp at 1 h ([2]; male, C57BL/6, mouse, ip): 0.0329; Kp at 3 h ([2]; male, C57BL/6, mouse, ip): 0.271; concentration at 3 h [2, 4]: 361 µM; plasma levels [2]: 10011.16; survival of 3T3-TrkB cells (3T3-TrkB cells; 1000 nM, representative images): support the survival; survival of 3T3-TrkB cells (3T3-TrkB cells; serum-free medium, ViaLight, compounds 10-1000 nM dose-response, BDNF 20 ng/ml): promoted survival
